The nature of data set [1]: Stability in bronchoalveolar lavage fluid (BAL). The format is in vitro ADME, mouse. The method, then:
Bronchoalveolar lavage fluid (BAL) was collected from male and female C57BL/6 mice (4–5 months old) according to the procedure described in [31, 32]. Mice were euthanized by means of CO2 narcosis; a small incision at the level of the neck was made and a blunt needle connected to a syringe was inserted into the trachea. Then, lungs were washed with 1 mL of sterile PBS. BAL samples from each mouse were pooled, centrifuged at 1000 rpm (corresponding to […]) for 5 min, and stored at −80 °C. The supernatant was used for stability tests.
Peptides were dissolved in 400 µL of PBS at a concentration of 300 µM, and added to an equal volume of BAL at a final concentration of 150 µM. At different time points, 150 μL aliquots were withdrawn and added to 500 µL of acetonitrile, and then centrifuged. The supernatants were diluted with 160 μL of 0.1% trifluoroacetic acid (TFA)—water and analyzed by RP-HPLC and mass spectrometry. Liquid chromatography was performed on a Phenomenex Jupiter C18 analytical column (300 Å, 5 μm, 250 × 4.6 mm) in a 30 min gradient, using 0.1% TFA in water as solvent A and acetonitrile as solvent B. Mass spectrometry analysis of diluted samples was performed with a Bruker Daltonic-ultraflex-matrix-assisted laser desorption ionization tandem time-of-flight (MALDI-TOF/TOF) mass spectrometer.

The subject of data set [2] is CD1 mice. Description: Maximum tolerated dosage (MTD) and therapeutic index. The format is in vivo, mouse. The method, then:
(§1) Five-week-old female wild-type CD1 mice were anesthetized by isoflurane inhalation and instilled intratracheally with 1.5 mg/kg (corresponding to 300 μM) of Esc(1-21)-1c in the free or encapsulated form in 50 μL of PBS. Mice instilled with 50 μL of PBS or bare PVA-PLGA NPs were included for control. After 1 day and 14 days, mice were euthanized for tissue isolation and examined for histopathology. Tissues were fixed in situ with 4% paraformaldehyde for 10 min with open chest cavity. They were then embedded in paraffin, and 5 µm-thick tissue slices were prepared by staining in hematoxylin and eosin and analyzed for pathological severity. In parallel, another group of seven animals was anesthetized by isoflurane inhalation and instilled intratracheally with escalating concentrations up to 7 mg/kg Esc(1-21)-1c in 50 μL of PBS and monitored for survival to determine the MTDs.

For data set [3], the system named is CD1 mice. Description: Mouse toxicity: histopathology after intratracheal instillation. The class given is in vivo. The method, then:
as §1, with “After 1 day and 14 days, mice were euthanized for tissue isolation and examined for histopathology.” left out

Data set [4] deals with lungs of healthy CD1 mice. Description: Lung gene expression (RNA-seq) after intratracheal instillation. The format is in vivo, mouse. The settings on record: i.t. 0.1 mg/kg (20 μM), 24 h, vs PBS-treated animals. The method, then: All animal experiments were carried out based on a protocol (n. 20087639) approved by the Institutional Animal Care and Use Committee of the University of Pittsburgh according to the National Institutes of Health (NIH) guide for the care and use of laboratory animals. Seven-week-old female wild-type CD1 mice were anesthetized by isoflurane inhalation and instilled intratracheally with 50 µL of peptide solution (0.1 mg/kg, i.e., 20 μM) or PVA-PLGA NP suspension (either bare NPs or NPs loaded with each peptide at 0.1 mg/kg), in PBS. Control mice were given 50 µL of PBS without peptide. After 24 h, mice were euthanized for lung tissue isolation to extract RNA for differential expression analysis (sequencing work was performed by Novogene US Marketing).

The conditions of data set [5]: cited from earlier work. The source says: This last feature is not shown by any traditional antibiotic and is expected to accelerate the healing of a damaged lung epithelium, especially in CF lungs, where wound-healing processes are highly compromised. Interestin ...

Each structure is given as a SMILES string. Square brackets hold non-standard residues; d marks the D form. Peptide text beside a SMILES is read from it.

Turning to `CC[C@H](C)[C@H](NC(=O)CN)C(=O)N[C@@H](Cc1ccccc1)C(=O)N[C@@H](CO)C(=O)N[C@@H](CCCCN)C(=O)N[C@@H](CC(C)C)C(=O)N[C@@H](C)C(=O)NCC(=O)N[C@@H](CCCCN)C(=O)N[C@@H](CCCCN)C(=O)N[C@H](C(=O)N[C@@H](CCCCN)C(=O)N[C@@H](CC(N)=O)C(=O)N[C@H](CC(C)C)C(=O)N[C@@H](CC(C)C)C(=O)N[C@H](C(=O)N[C@H](CO)C(=O)NCC(=O)N[C@@H](CC(C)C)C(=O)N[C@@H](CCCCN)C(=O)NCC(N)=O)[C@@H](C)CC)[C@@H](C)CC` [Esc(1-21)-1c] (H-GIFSKLAGKKIKN[dL]LI[dS]GLKG-NH2), the “time in BAL at which the peak of the full-length peptide (2185 Da) is still detected” value in data set [1] (mouse (C57BL/6) BAL supernatant mixed 1:1 with peptide in PBS, 300 μM (method: final 150 µM), time points 6 and 24 h, acetonitrile work-up, RP-HPLC C18 and MALDI-TOF/TOF) is reported as ≥ 24 h. The “time of incubation with BAL after which the full-length peptide (2185 Da) is detectable” value in data set [1] (mouse BAL, high peptide concentration (as for 7 mg/kg), mass spectra (Figure S5)) was ≥ 48 h. For the same compound, the range of motion result in the data set with CD1 mice [2] (1 h and 24 h after i.t. instillation at 7 mg/kg) is reported as “maintained the same range of motion”. For the same compound, in the data set with CD1 mice [2] (i.t. instillation, increasing concentrations from 1.5 to 7 mg/kg in 50 μL PBS, survival monitored for 14 days), the “maximum tolerated dosage (highest dosage tested, well-tolerated)” value is reported as ≥ 7 mg/kg. In addition, the survival result in the data set on CD1 mice [2] (i.t. up to 7 mg/kg, monitored for 14 days) is recorded as “remained viable for the entire duration of the experiment”. Moreover, the “lung histology: inflammatory response or lung tissue damage” value in the data set with CD1 mice [3] (CD1 mice, i.t. 1.5 mg/kg (~300 µM) peptide free or encapsulated, or corresponding amount of bare NPs, 1 day and 14 days, H&E) is reported as “did not detect any inflammatory response”. In addition, the “histology of other organs (liver and kidneys)” value in the data set with CD1 mice [3] (CD1 mice, i.t. 1.5 mg/kg free or encapsulated, 1 day and 14 days, vs control) is listed as “no visible tissue injury, necrosis, or alteration in cell density”. Besides, the “histology of liver, spleen and kidneys” value in the data set with CD1 mice [3] (mice, i.t. 7 mg/kg, 48 h, vs control) is listed as “no alteration in the tissue structure”. Moreover, in the data set on CD1 mice [3] (mice, i.t. 7 mg/kg, within 48 h, vs PBS-treated mice), the “lung histopathology: recruitment of inflammatory cells” value is “did not reveal significant recruitment of inflammatory cells”. For the same compound, in data set [4], the “Log2FC, gene Chil1 (up)” value came out at 34.248; the “Log2FC, gene Dynlt1f (up)” value is recorded as 19.702; the “Log2FC, gene Eif4a-ps4 (up)” value came to 17.867; the “Log2FC, gene Rpl26 (up)” value is reported as 20.049. In addition, the “Log2FC, gene Snhg11 (down)” value in data set [4] is −1.949. Further, the “resistance to enzymatic degradation compared with Esc(1-21)” value in data set [5] was “more resistant to enzymatic degradation”.

These data come from publication PMC9697339, “Pulmonary Safety Profile of Esc Peptides and Esc-Peptide-Loaded Poly(lactide-co-glycolide) Nanoparticles: A Promising Therapeutic Approach for Local Treatment of Lung Infectious Diseases” (Pharmaceutics, 2022).
